Each structure is given as a SMILES string.

In one assay the test system is iNOS mRNA. The assay can be described thus: iNOS mRNA expression in muscularis of transplanted grafts (real time RT-PCR). The assay is classed as in vivo, rat. To be noted: CO-treated SITx rats, 4 hours after reperfusion; p=0.060. The method, then: The effects of inhalation of CO on transplant-induced pro-inflammatory and anti-inflammatory gene expression was assessed in muscularis extracts by RT-PCR. Muscularis extemae was collected from normal intestine and transplanted grafts 4 hours postoperatively and snap frozen in liquid nitrogen. This time point falls within the range of maximum inflammatory mediator expression that occurs between 3 and 6 hours following abdominal incision. Total RNA extraction was performed using the guanidium-thiocyanate phenol-chloroform extraction method as described previously (Eskandari et al., Am. J. Clin. Pathol. 75(3):367-370 (1997)). RNA pellets were resuspended in RNA-secure resuspension solution (Ambion Inc., Austin, Tex.), followed by removal of potentially contaminating DNA by treatment with DNase I (DNA-Free Kit, Ambion Inc., Austin, Tex.). Equal aliquots (5 μg) of total RNA from each sample were quantified by spectrophotometry (wavelength […]) and aliquoted at a concentration of 40 ng/μl. Peak mRNA expression was quantified in duplicate by SYBR Green two-step, real-time RT-PCR. […] Real-time PCR data were plotted as the ΔRn, fluorescence signal versus the cycle number. […] Quantification of mRNA expression was normalized to GAPDH and calculated relative to control using the comparative CT method (Schmittgen et al., J. Biochem. Biophys. Methods 46(1-2):69-8 (2000)). […]
For orientation: In qPCR the cycle at which signal appears reflects the starting amount.

A further assay deals with COX-2 mRNA. The assay can be described thus: COX-2 mRNA in muscularis after IM (real time RT-PCR). The assay is classed as in vivo, mouse. As to the method:
Pro- and anti-inflammatory gene expression was determined by real time RT-PCR. The small intestinal muscularis externa was collected at 4 time points (3, 6, 12, and 24 hr) postoperatively and snap frozen in liquid nitrogen. Total RNA extraction was performed using the guanidium-thiocyanate phenol-chloroform extraction method as described in Eskandari et al. (Id.) RNA pellets were resuspended in RNA-secure resuspension solution (Ambion Inc., Austin, Tex.), followed by removal of potential contaminating DNA by treatment with DNase I (DNA-Free Kit, Ambion Inc., Austin, Tex.). Equal aliquots (5 μg) of total RNA from each sample were quantified by spectrophotometry (wavelength […]). Peak mRNA expression was quantified in duplicate by SYBR Green two-step, real-time RT-PCR. β-actin was used as the endogenous reference. Aliquoted RNA (40 ng) was subjected to first-strand complementary DNA (cDNA) synthesis using random hexamers (PE applied Biosystems, Foster City, Calif.) and Super Script II (Life Technologies, Rockville, Md.). Primers were taken from the literature or designed according to published sequences (Table 3). PCR reaction mixture was prepared using SYBR Green PCR Core Reagents (PE Applied Biosystems). Each sample was estimated in duplicate using the conditions recommended by the manufacturer. Real-time PCR data were plotted as the ΔRn fluorescence signal versus the cycle number. An arbitrary threshold was set to the midlinear portion of the log ΔRn cycle plot. The threshold cycle (CT) is defined as the cycle number at which the ΔRn, crosses this threshold. Quantification of mRNA expression was normalized to β-actin and calculated relative to control using the comparative CT method.
To exclude PCR amplification of contaminating genomic DNA, RT-negative controls (samples containing RNA which was not reverse transcribed) were included in each PCR reaction. Melting curve analyses were performed for each reaction to ensure amplification of specific product. […] PCR amplification efficiency of each target cDNA was measured by determining the colinearity of serial dilutions. […]

Another assay relates to circular muscle strip. The assay can be described thus: Example 3 circular muscle strip contractions in response to bethanechol after IM. It counts as in vivo, mouse. To be noted: IM+CO mice (250 and 500 ppm), bethanechol 100 μM, 24 hours. The method, then: (§1) Ileus was induced in mice by gentle manipulation of the small intestine. An incision was made to expose the abdominal cavity of the mouse, and bowel manipulation was performed by gentle poking and prodding of the small intestine (see, e.g., Schwarz et al., Gastroenterology 121(6):1354-1357 (2001)). The incision was subsequently closed, and analyses were performed 24 hours later. Mice were exposed to CO by inhalation (250 and 500 ppm) for 1 hour immediately prior to intestinal manipulation and during the entire 24-hour recovery period. Intestinal contractility was assessed in vitro by measuring circular muscle strip contractions in response to bethanechol (0.3-300 μM) and in vivo by determining intestinal transit from the distribution of orally-fed, fluorescein-labeled dextran and calculating geometric center as described in Example 1 above. HO-1 and IL-10 mRNA expression were determined by SYBR green real time RT-PCR from extracts of muscularis extemae, as described in Example 1 above. Release of nitric oxide (NO), a potent inhibitor of smooth muscle contractility, was estimated by measuring serum total nitrite, also described in Example 1 above.

Assay [1] relates to mice with ileus induced by manipulation of the small intestine. The assay can be described thus: Example 3 intestinal transit, geometric center after IM. It counts as in vivo, mouse. The settings on record: IM+CO mice (250 and 500 ppm), 24 hours. As to the method:
as §1

`[C-]#[O+]` [CO, carbon monoxide]: the “reduction of mean relative iNOS mRNA expression” value with iNOS mRNA is given as “approximately 50%”. Besides, in the assay on COX-2 mRNA (IM + CO, 3 or 6 hr time points), the “IM-induced COX-2 gene expression” value is given as “no effect”. In the assay on COX-2 mRNA (control animals, CO inhalation, 3 hr post-treatment), the “COX-2 mRNA expression” value is “significantly increased”. For the same compound, the “induction of COX-2 message” value in the assay on COX-2 mRNA (unoperated control mice, CO inhalation alone, 3 hr) is given as 2.5 fold. Further, in the assay on circular muscle strip, the peak contractile force is on record as 1.9±0.5 g/s/mm^2. For the same compound, the geometric center in assay [1] worked out at 6.3±0.8.

These data come from patent publication US7687079B2, “Methods of treating ileus” (priority 2002, dated 2010).
